Measured values: patent US9978954B2, “Benzobis (thiadiazole) derivative, ink comprising same, and organic electronic device comprising same” (UBE INDUSTRIES, LTD., priority 2013, dated 2018)
One block for each compound: values may come before it.

Experiment: Evaluation of solubility in organic solvents (visual observation of complete dissolution)
Format: physicochemical
Description: [Evaluation of Solubility]
The evaluation of the solubility of the synthesized compound was conducted by the following method.
About 2-3 mg of the compound was precisely weighed, and each solvent was added to the compound such that a predetermined concentration of the solute (0.5 wt %, 0.3 wt %, 0.2 wt %, 0.1 wt %, 0.05 wt %, or 0.03 wt %) was reached. The resultant mixture was stirred for 30 minutes at a predetermined temperature, and then it was evaluated by visual appearance observation whether or not the solute (synthesized compound) was completely dissolved in the solvent, which was the result of the evaluation of the solubility. As the solvent, chloroform (boiling point 61° C.), toluene (boiling point 111° C.), xylene (boiling point 144° C.), mesitylene (boiling point 165° C.), chlorobenzene (boiling point 130° C.), para-chlorotoluene (boiling point 162° C.), and ortho-dichlorobenzene (boiling point 181° C.) were used.

[1] = chloroform, 25° C. (room temperature)

solubility (solute concentration completely dissolved) (chlorobenzene, 60° C.): ≥ 0.3 wt %
solubility (solute concentration completely dissolved) [1]: ≥ 0.1 wt %
solubility (solute concentration completely dissolved) (chloroform, 60° C.): ≥ 0.2 wt %
solubility (solute concentration completely dissolved) (ortho-dichlorobenzene, 60° C.): ≥ 0.3 wt %
solubility (solute concentration completely dissolved) (para-chlorotoluene, 80° C.): ≥ 0.3 wt %
Compound: CCCCCCCCCc1cc(-c2ccc(-c3c4c(c(-c5ccc(-c6ccc(C#N)c(CCCCCCCCC)c6)s5)c5nsnc35)N=S=N4)s2)ccc1C#N [Compound (C15), 4,8-bis[5-(4-cyano-3-nonylphenyl)thiophene-2-yl]benzo[1,2-c:4,5-c′]bis[1,2,5]thiadiazole]

solubility (solute concentration completely dissolved) (chlorobenzene, 80° C.): ≥ 0.1 wt %
solubility (solute concentration completely dissolved) (chlorobenzene, 130° C.): ≥ 0.5 wt %
solubility (solute concentration completely dissolved) (mesitylene, 80° C.): ≥ 0.1 wt %
solubility (solute concentration completely dissolved) (mesitylene, 130° C.): ≥ 0.3 wt %
solubility (solute concentration completely dissolved) (ortho-dichlorobenzene, 80° C.): ≥ 0.1 wt %
solubility (solute concentration completely dissolved) (ortho-dichlorobenzene, 130° C.): ≥ 0.5 wt %
solubility (solute concentration completely dissolved) (toluene, 80° C.): ≥ 0.1 wt %
Compound: FC(F)(F)Sc1cccc(-c2ccc(-c3c4c(c(-c5ccc(-c6cccc(SC(F)(F)F)c6)s5)c5nsnc35)N=S=N4)s2)c1 [Compound (C6), 4,8-bis[5-(3-((trifluoromethyl)thio)phenyl)thiophene-2-yl]benzo[1,2-c:4,5-c′]bis[1,2,5]thiadiazole]

solubility (solute concentration completely dissolved) (mesitylene, 80° C.): ≥ 0.1 wt %
solubility (solute concentration completely dissolved) (toluene, 80° C.): ≥ 0.1 wt %
Compound: FC(F)(F)Oc1ccccc1-c1ccc(-c2c3c(c(-c4ccc(-c5ccccc5OC(F)(F)F)s4)c4nsnc24)N=S=N3)s1 [Compound (RR1), 4,8-bis[5-(2-(trifluoromethoxy)phenyl)thiophene-2-yl]benzo[1,2-c:4,5-c′]bis[1,2,5]thiadiazole, reference compound]

solubility (solute concentration completely dissolved) (chlorobenzene, 25° C.): ≥ 0.03 wt %
solubility (solute concentration completely dissolved) (chlorobenzene, 60° C.): ≥ 0.1 wt %
solubility (solute concentration completely dissolved) (chlorobenzene, 80° C.): ≥ 0.3 wt %
solubility (solute concentration completely dissolved) (mesitylene, 25° C.): ≥ 0.03 wt %
solubility (solute concentration completely dissolved) (ortho-dichlorobenzene, 25° C.): ≥ 0.03 wt %
solubility (solute concentration completely dissolved) (ortho-dichlorobenzene, 60° C.): ≥ 0.1 wt %
solubility (solute concentration completely dissolved) (ortho-dichlorobenzene, 100° C.): ≥ 0.5 wt %
solubility (solute concentration completely dissolved) (toluene, 25° C.): ≥ 0.03 wt %
Compound: CCCCCCc1cc(-c2ccc(-c3c4c(c(-c5ccc(-c6ccc(C(F)(F)F)c(CCCCCC)c6)s5)c5nsnc35)N=S=N4)s2)ccc1C(F)(F)F [Compound (C10), 4,8-bis[5-(3-hexyl-4-(trifluoromethyl)phenyl)thiophene-2-yl]benzo[1,2-c:4,5-c′]bis[1,2,5]thiadiazole]

solubility (solute concentration completely dissolved) (chlorobenzene, 100° C.): < 0.03 wt %
solubility (solute concentration completely dissolved) (mesitylene, 100° C.): < 0.03 wt %
solubility (solute concentration completely dissolved) (ortho-dichlorobenzene, 100° C.): < 0.03 wt %
solubility (solute concentration completely dissolved) (toluene, 100° C.): < 0.03 wt %
Compound: FC(F)(F)Oc1ccc(-c2ccc(-c3c4c(c(-c5ccc(-c6ccc(OC(F)(F)F)cc6)s5)c5nsnc35)N=S=N4)s2)cc1 [Compound (RC1), 4,8-bis[5-(4-(trifluoromethoxy)phenyl)thiophene-2-yl]benzo[1,2-c:4,5-c′]bis[1,2,5]thiadiazole, reference compound]

solubility (solute concentration completely dissolved) (1-methylnaphthalene, 100° C.): ≥ 0.3 wt %
solubility (solute concentration completely dissolved) (chlorobenzene, 100° C.): ≥ 0.3 wt %
solubility (solute concentration completely dissolved) (chloroform, 60° C.): ≥ 0.1 wt %
solubility (solute concentration completely dissolved) (ortho-dichlorobenzene, 80° C.): ≥ 0.3 wt %
Compound: CCCCCCCCCCCCCCCCCCc1cc(-c2ccc(-c3c4c(c(-c5ccc(-c6ccc(C#N)c(CCCCCCCCCCCCCCCCCC)c6)s5)c5nsnc35)N=S=N4)s2)ccc1C#N [Compound (C20), 4,8-bis[5-(4-cyano-3-octadecylphenyl)thiophene-2-yl]benzo[1,2-c:4,5-c′]bis[1,2,5]thiadiazole]

solubility (solute concentration completely dissolved) (chlorobenzene, 60° C.): ≥ 0.1 wt %
solubility (solute concentration completely dissolved) (chlorobenzene, 80° C.): ≥ 0.5 wt %
solubility (solute concentration completely dissolved) (mesitylene, 80° C.): ≥ 0.1 wt %
solubility (solute concentration completely dissolved) (mesitylene, 100° C.): ≥ 0.5 wt %
solubility (solute concentration completely dissolved) (ortho-dichlorobenzene, 60° C.): ≥ 0.1 wt %
solubility (solute concentration completely dissolved) (ortho-dichlorobenzene, 80° C.): ≥ 0.5 wt %
solubility (solute concentration completely dissolved) (toluene, 60° C.): ≥ 0.1 wt %
solubility (solute concentration completely dissolved) (toluene, 80° C.): ≥ 0.5 wt %
Compound: CCCCCCc1ccc(-c2ccc(-c3c4c(c(-c5ccc(-c6ccc(CCCCCC)c(OC(F)(F)F)c6)s5)c5nsnc35)N=S=N4)s2)cc1OC(F)(F)F [Compound (C11), 4,8-bis[5-(4-hexyl-3-(trifluoromethoxy)phenyl)thiophene-2-yl]benzo[1,2-c:4,5-c′]bis[1,2,5]thiadiazole]

solubility (solute concentration completely dissolved) (chlorobenzene, 25° C.): ≥ 0.03 wt %
solubility (solute concentration completely dissolved) (mesitylene, 25° C.): ≥ 0.03 wt %
solubility (solute concentration completely dissolved) (mesitylene, 60° C.): ≥ 0.1 wt %
solubility (solute concentration completely dissolved) (mesitylene, 100° C.): ≥ 0.5 wt %
solubility (solute concentration completely dissolved) (ortho-dichlorobenzene, 25° C.): ≥ 0.03 wt %
solubility (solute concentration completely dissolved) (toluene, 25° C.): ≥ 0.03 wt %
solubility (solute concentration completely dissolved) (toluene, 60° C.): ≥ 0.1 wt %
solubility (solute concentration completely dissolved) (toluene, 100° C.): ≥ 0.5 wt %
Compound: CCCCCCCCCCC(F)(F)c1cccc(-c2ccc(-c3c4c(c(-c5ccc(-c6cccc(C(F)(F)CCCCCCCCCC)c6)s5)c5nsnc35)N=S=N4)s2)c1 [Compound (C4), 4,8-bis[5-(3-(1,1-difluoroundecyl)phenyl)thiophene-2-yl]benzo[1,2-c:4,5-c′]bis[1,2,5]thiadiazole]

solubility (solute concentration completely dissolved) (chlorobenzene, 60° C.): < 0.03 wt %
solubility (solute concentration completely dissolved) (mesitylene, 60° C.): < 0.03 wt %
solubility (solute concentration completely dissolved) (toluene, 60° C.): < 0.03 wt %
Compound: CCCCCCCCCCC(F)(F)c1ccc(-c2ccc(-c3c4c(c(-c5ccc(-c6ccc(C(F)(F)CCCCCCCCCC)cc6)s5)c5nsnc35)N=S=N4)s2)cc1 [Compound (RC3), 4,8-bis[5-(4-(1,1-difluoroundecyl)phenyl)thiophene-2-yl]benzo[1,2-c:4,5-c′]bis[1,2,5]thiadiazole, reference compound]

solubility (solute concentration completely dissolved) (1-methylnaphthalene, 25° C. (room temperature)): ≥ 0.1 wt %
solubility (solute concentration completely dissolved) [1]: ≥ 0.1 wt %
solubility (solute concentration completely dissolved) (ortho-dichlorobenzene, 25° C.): ≥ 0.1 wt %
solubility (solute concentration completely dissolved) (toluene, 25° C.): ≥ 0.3 wt %
Compound: CCCCCCc1cc(-c2ccc(-c3c4c(c(-c5ccc(-c6cc(CCCCCC)c(C#N)c(CCCCCC)c6)s5)c5nsnc35)N=S=N4)s2)cc(CCCCCC)c1C#N [Compound (C22), 4,8-bis[5-(4-cyano-3,5-dihexylphenyl)thiophene-2-yl]benzo[1,2-c:4,5-c′]bis[1,2,5]thiadiazole]

solubility (solute concentration completely dissolved) (1-methylnaphthalene, 60° C.): ≥ 0.3 wt %
solubility (solute concentration completely dissolved) (chloroform, 60° C.): ≥ 0.2 wt %
solubility (solute concentration completely dissolved) (mesitylene, 80° C.): ≥ 0.3 wt %
solubility (solute concentration completely dissolved) (ortho-dichlorobenzene, 80° C.): ≥ 0.3 wt %
solubility (solute concentration completely dissolved) (toluene, 80° C.): ≥ 0.3 wt %
Compound: CCCCC(CC)Cc1cc(-c2ccc(-c3c4c(c(-c5ccc(-c6ccc(C(F)(F)F)c(CC(CC)CCCC)c6)s5)c5nsnc35)N=S=N4)s2)ccc1C(F)(F)F (centres unmarked) [Compound (C30)]

solubility (solute concentration completely dissolved) (chlorobenzene, 60° C.): ≥ 0.1 wt %
solubility (solute concentration completely dissolved) (chlorobenzene, 80° C.): ≥ 0.5 wt %
solubility (solute concentration completely dissolved) (mesitylene, 80° C.): ≥ 0.1 wt %
solubility (solute concentration completely dissolved) (mesitylene, 130° C.): ≥ 0.5 wt %
solubility (solute concentration completely dissolved) (ortho-dichlorobenzene, 60° C.): ≥ 0.1 wt %
solubility (solute concentration completely dissolved) (ortho-dichlorobenzene, 80° C.): ≥ 0.5 wt %
Compound: CCCCCCc1cc(-c2ccc(-c3c4c(c(-c5ccc(-c6ccc(OC(F)(F)F)c(CCCCCC)c6)s5)c5nsnc35)N=S=N4)s2)ccc1OC(F)(F)F [Compound (C12)]

solubility (solute concentration completely dissolved) (chlorobenzene, 25° C.): ≥ 0.03 wt %
solubility (solute concentration completely dissolved) (mesitylene, 25° C.): ≥ 0.03 wt %
solubility (solute concentration completely dissolved) (mesitylene, 60° C.): ≥ 0.1 wt %
solubility (solute concentration completely dissolved) (mesitylene, 80° C.): ≥ 0.5 wt %
solubility (solute concentration completely dissolved) (ortho-dichlorobenzene, 25° C.): ≥ 0.03 wt %
solubility (solute concentration completely dissolved) (toluene, 25° C.): ≥ 0.03 wt %
solubility (solute concentration completely dissolved) (toluene, 60° C.): ≥ 0.1 wt %
solubility (solute concentration completely dissolved) (toluene, 80° C.): ≥ 0.5 wt %
Compound: CCCCCCc1ccc(-c2ccc(-c3c4c(c(-c5ccc(-c6ccc(CCCCCC)c(C(F)(F)F)c6)s5)c5nsnc35)N=S=N4)s2)cc1C(F)(F)F [Compound (C9), 4,8-bis[5-(4-hexyl-3-(trifluoromethyl)phenyl)thiophene-2-yl]benzo[1,2-c:4,5-c′]bis[1,2,5]thiadiazole]

solubility (solute concentration completely dissolved) (1-methylnaphthalene, 60° C.): ≥ 0.3 wt %
solubility (solute concentration completely dissolved) (chloroform, 60° C.): ≥ 0.2 wt %
solubility (solute concentration completely dissolved) (mesitylene, 60° C.): ≥ 0.3 wt %
solubility (solute concentration completely dissolved) (ortho-dichlorobenzene, 60° C.): ≥ 0.3 wt %
solubility (solute concentration completely dissolved) (toluene, 60° C.): ≥ 0.3 wt %
Compound: CCCCCCCCc1cc(-c2ccc(-c3c4c(c(-c5ccc(-c6ccc(C(F)(F)F)c(CCCCCCCC)c6)s5)c5nsnc35)N=S=N4)s2)ccc1C(F)(F)F [Compound (C24), 4,8-bis[5-(3-octyl-4-(trifluoromethyl)phenyl)thiophene-2-yl]benzo[1,2-c:4,5-c′]bis[1,2,5]thiadiazole]

solubility (solute concentration completely dissolved) (chlorobenzene, 130° C.): ≥ 0.1 wt %
solubility (solute concentration completely dissolved) (mesitylene, 130° C.): ≥ 0.1 wt %
solubility (solute concentration completely dissolved) (ortho-dichlorobenzene, 100° C.): ≥ 0.1 wt %
Compound: FC(F)(F)c1cc(-c2ccc(-c3c4c(c(-c5ccc(-c6cc(C(F)(F)F)cc(C(F)(F)F)c6)s5)c5nsnc35)N=S=N4)s2)cc(C(F)(F)F)c1 [Compound (C3), 4,8-bis[5-(3,5-bis(trifluoromethyl)phenyl)thiophene-2-yl]benzo[1,2-c:4,5-c′]bis[1,2,5]thiadiazole]
